Reference: patent US11746111B2, “Siderophore conjugated pyrazolidinones, and analogues thereof” (YALE UNIVERSITY, priority 2018, dated 2023)
≈ marks a conversion by molar mass, not a printed value. Where two headings read alike, the source gives them in different places.

How the values were obtained:
[1] = tested on: E. coli clinical isolates; assay: Microdilution broth MIC, E. coli clinical isolates (Table 1); assay type: cell-based; conditions: Escherichia coli, read-out: MIC
Method: (§1) Microdilution Broth Minimum Inhibitory Concentrations (MICs)
(§2) MICs were performed in triplicate in cation adjusted Mueller-Hinton (MH) broth 30 according to CLSI guidelines. Firstly, overnight cultures of E. coli and K. pneumoniae clinical isolates were inoculated into 5 ml MH broth to OD600=0.1 and grown to OD600=0.224 (approximately 1-2×10^8 CFU/ml). These cultures were diluted (3 μl+4997 μl MH) and 100 μl inoculated into each well of a 96-well plate containing 100 μl of serial dilutions of compound 26 (YU253434), ampicillin, ceftazidime, or imipenem. The plates were placed in a 37° C. incubator for 18-20 hours and wells checked for growth.

E. coli = assay: MIC versus E. coli strains incl. Class B metallo beta lactamases (Table 2); assay type: cell-based; conditions: Escherichia coli
Source text: (§3) Tables 2 and 3 show MIC values of compound 26 (YU253434) and 42 YU253911 versus E. coli and P. Aeruginosa strains containing Class B metallo beta lactamases VIM and NDM compared with Meropenem as a standard.

Pseudomonas aeruginosa = assay: MIC versus Pseudomonas aeruginosa strains incl. Class B metallo beta lactamases (Table 3); assay type: cell-based
Source text: as §3

[2] = tested on: K. pneumoniae clinical isolates; assay: Microdilution broth MIC, K. pneumoniae clinical isolates (Table 1); assay type: cell-based; conditions: Klebsiella pneumoniae
Method: as §1, §2

[3] = target: Pseudomonas aeruginosa penicillin binding protein 3 (PBP3) (Pseudomonas aeruginosa, UniProt G3XD46); assay: Inhibition of penicillin binding protein 3 (Bocillin based assay); conditions: Pseudomonas aeruginosa PBP3 (FIG. 5)
Chain of Pseudomonas aeruginosa penicillin binding protein 3 (PBP3) (G3XD46 whole entry): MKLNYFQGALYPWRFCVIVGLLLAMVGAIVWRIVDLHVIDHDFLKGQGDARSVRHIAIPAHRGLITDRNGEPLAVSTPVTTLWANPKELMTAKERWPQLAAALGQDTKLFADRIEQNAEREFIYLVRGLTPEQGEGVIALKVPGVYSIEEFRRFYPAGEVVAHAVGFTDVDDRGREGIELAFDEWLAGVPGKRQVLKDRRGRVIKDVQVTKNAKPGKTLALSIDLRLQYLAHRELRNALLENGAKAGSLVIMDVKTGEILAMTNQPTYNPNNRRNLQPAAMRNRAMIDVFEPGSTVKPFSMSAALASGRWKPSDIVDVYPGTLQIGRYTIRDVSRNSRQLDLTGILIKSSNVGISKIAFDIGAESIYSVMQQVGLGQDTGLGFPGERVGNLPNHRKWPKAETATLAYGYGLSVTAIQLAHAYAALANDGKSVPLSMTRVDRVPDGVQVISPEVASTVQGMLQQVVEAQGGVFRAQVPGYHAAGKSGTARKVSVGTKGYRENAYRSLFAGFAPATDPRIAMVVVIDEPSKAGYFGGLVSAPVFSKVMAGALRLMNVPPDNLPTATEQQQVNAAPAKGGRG
Source text: FIG. 5 is a graph showing compound 26 inhibiting Pseudomonas aeruginosa penicillin binding protein 3 (PBP3).
To assess the affinity of the inhibitors for PBP3 and PBP1a and PBP1b, a Bocillin based assay using PA01 membranes as well as purified proteins is used. Delineation of remarkably active compounds occurs by establishing the MIC90 against Ec, Pa, Ab and Kp as well as static time kill measurement. When siderophore linked pyrazolidinone agents show remarkable activity (i.e. activity equal to or greater than current clinical agents Meropenem or Aztreonam) in these latter secondary assays, they are tested in vivo in a mouse septicemia efficacy model after protein binding measurement and will show potent in vivo activity.

Q: How did the MIC ([1]; BAA202, E. coli BAA-202, SHV-1) turn out when `CC(C)(O/N=C(\C(=O)N[C@H]1CN2CC(C(=O)NCCN3C(=O)c4cc(O)c(O)cc4C3=O)=C(C(=O)O)N2C1=O)c1csc(N)n1)C(=O)O` [Compound 26, (S,Z)-6-(2-(2-aminothiazol-4-yl)-2-(((2-carboxypropan-2-yl)oxy)imino)acetamido)-2-((2-(5,6-dihydroxy-1,3-dioxoisoindolin-2-yl)ethyl)carbamoyl)-5-oxo-6,7-dihydro-1H,5H-pyrazolo[1,2-a]pyrazole-3-carboxylic acid] was run?
A: Its MIC is 4 µg/mL (≈ 5.83 µM).

Q: What about the MIC ([1]; E. coli 35218, TEM-1) of the same compound?
A: Its MIC is 0.125 µg/mL (≈ 0.182 µM).

Q: What about the MIC ([1]; E. coli LC4, TEM, SHV-12) of the same compound?
A: Its MIC is 16 µg/mL (≈ 23.3 µM).

Q: What about the MIC ([1]; E. coli LC12, CTX-M-1 grp(15)) of the same compound?
A: Its MIC is over 128 µg/mL.

Q: What about the MIC ([1]; E. coli LC33, CTX-M-9 group) of the same compound?
A: The MIC was 1 µg/mL (≈ 1.46 µM).

Q: What about the MIC ([1]; E. coli LC38, CTX-M-1 grp(15), PB AmpC (ACT/MIR)) of the same compound?
A: The MIC was 0.25 µg/mL (≈ 0.364 µM).

Q: And the MIC ([1]; E. coli LC41, TEM (238S), PB AmpC (ACT/MIR), CTX-M-1 grp(15))?
A: The MIC was 16 µg/mL (≈ 23.3 µM).

Q: What about the MIC ([1]; E. coli LC77, TEM, KPC) of the same compound?
A: The MIC was 0.5 µg/mL (≈ 0.728 µM).

Q: And the MIC ([1]; E. coli LC81, SHV (238S + 240K))?
A: The MIC was 16 µg/mL.

Q: And the MIC ([1]; E. coli LC98, CMY (group II))?
A: The MIC was 4 µg/mL (≈ 5.83 µM).

Q: What about the MIC ([1]; E. coli LC109, CTX-M-9 group, CMY (group II)) of the same compound?
A: Its MIC is 0.25 µg/mL (≈ 0.364 µM).

Q: What about the MIC ([1]; E. coli LC111, TEM (164S)) of the same compound?
A: Its MIC is 1 µg/mL (≈ 1.46 µM).

Q: What about the MIC ([1]; E. coli LC136, SHV (WT + 238S)) of the same compound?
A: Its MIC is 0.125 µg/mL.

Q: What about the MIC ([1]; E. coli Rush24, CMY (group II)) of the same compound?
A: Its MIC is 8 µg/mL (≈ 11.7 µM).

Q: And the MIC (E. coli; ATCC25822, E. coli isolate ATCC 25822, CLSI costrol)?
A: The MIC was 2 µg/mL (≈ 2.91 µM).

Q: And the MIC (E. coli; E. coli isolate AA-118, NDM)?
A: Its MIC is 4 µg/mL (≈ 5.83 µM).

Q: What about the MIC (E. coli; E. coli isolate AA-119, NDM) of the same compound?
A: The MIC was 4 µg/mL (≈ 5.83 µM).

Q: What about the MIC (E. coli; E. coli isolate AA-128, NDM) of the same compound?
A: Its MIC is 4 µg/mL (≈ 5.83 µM).

Q: And the MIC (E. coli; E. coli isolate AK-114, KPC-3, TEM-18)?
A: The MIC was 0.5 µg/mL (≈ 0.728 µM).

Q: And the MIC (E. coli; E. coli isolate AR-1, KPC-3)?
A: Its MIC is 1 µg/mL (≈ 1.46 µM).

Q: And the MIC (E. coli; E. coli isolate AR-11, CTX-M-15, OxA-1)?
A: Its MIC is 0.5 µg/mL (≈ 0.728 µM).

Q: And the MIC (E. coli; E. coli isolate AR-137, NDM-6)?
A: Its MIC is 4 µg/mL (≈ 5.83 µM).

Q: And the MIC (E. coli; E. coli isolate AR-145, NDM)?
A: Its MIC is over 64 µg/mL.

Q: What about the MIC (E. coli; E. coli isolate J4244, MN) of the same compound?
A: The MIC was 2 µg/mL (≈ 2.91 µM).

Q: What about the MIC (E. coli; E. coli isolate J4245, Michigan) of the same compound?
A: Its MIC is 0.25 µg/mL (≈ 0.364 µM).

Q: And the MIC (Pseudomonas aeruginosa; ATCC27853, P. aeruginosa isolate ATCC 27853, CLSI control)?
A: The MIC was 0.25 µg/mL (≈ 0.364 µM).

Q: What about the MIC (Pseudomonas aeruginosa; P. aeruginosa isolate AR-229, OXA-50) of the same compound?
A: The MIC was 0.25 µg/mL (≈ 0.364 µM).

Q: What about the MIC (Pseudomonas aeruginosa; P. aeruginosa isolate AR-230, VIM-2) of the same compound?
A: Its MIC is 1 µg/mL (≈ 1.46 µM).

Q: And the MIC (Pseudomonas aeruginosa; P. aeruginosa isolate AR-231, KPC-5)?
A: Its MIC is 0.5 µg/mL (≈ 0.728 µM).

Q: What about the MIC (Pseudomonas aeruginosa; P. aeruginosa isolate AR-232, OXA-50) of the same compound?
A: The MIC was 0.5 µg/mL (≈ 0.728 µM).

Q: What about the MIC (Pseudomonas aeruginosa; P. aeruginosa isolate AR-245, VIM) of the same compound?
A: The MIC was 0.5 µg/mL (≈ 0.728 µM).

Q: What about the MIC (Pseudomonas aeruginosa; P. aeruginosa isolate AR-249, VIM) of the same compound?
A: The MIC was 1 µg/mL (≈ 1.46 µM).

Q: And the MIC (Pseudomonas aeruginosa; P. aeruginosa isolate AR-252)?
A: Its MIC is 1 µg/mL (≈ 1.46 µM).

Q: And the MIC (Pseudomonas aeruginosa; P. aeruginosa isolate AR-254, VIM)?
A: The MIC was 2 µg/mL (≈ 2.91 µM).

Q: What about the MIC (Pseudomonas aeruginosa; P. aeruginosa isolate AR-270, OXA-50) of the same compound?
A: Its MIC is 0.25 µg/mL (≈ 0.364 µM).

Q: What about the MIC (Pseudomonas aeruginosa; P. aeruginosa isolate J4242, UNC-D) of the same compound?
A: The MIC was 0.5 µg/mL (≈ 0.728 µM).

Q: And the MIC ([2]; K. pneumoniae 7000063, β-lactamase SHV-18, read-out: MIC)?
A: The MIC was 2 µg/mL (≈ 2.91 µM).

Q: And the MIC ([2]; K. pneumoniae KB390 Quale, TEM-30, TEM-1, KPC-2, SHV-12, read-out: MIC)?
A: Its MIC is 2 µg/mL (≈ 2.91 µM).

Q: What about the MIC ([2]; K. pneumoniae LC40, CTX-M-1 grp(15), TEM (164S), read-out: MIC) of the same compound?
A: The MIC was 16 µg/mL (≈ 23.3 µM).

Q: And the MIC ([2]; K. pneumoniae LC56, CTX-M-1 grp(15), read-out: MIC)?
A: Its MIC is 0.5 µg/mL (≈ 0.728 µM).

Q: And the MIC ([2]; K. pneumoniae LC102, SHV-1 (WT + 238S), read-out: MIC)?
A: Its MIC is 1 µg/mL.

Q: And the MIC ([2]; K. pneumoniae LC121, SHV-1 (WT + 238S + 240K), read-out: MIC)?
A: Its MIC is 4 µg/mL.

Q: And the MIC ([2]; K. pneumoniae Rush23, CTX-M-9 group, read-out: MIC)?
A: Its MIC is 2 µg/mL (≈ 2.91 µM).

Q: And the MIC ([2]; K. pneumoniae VA-368, KPC-2, TEM-1, SHV-5, SHV-68)?
A: The MIC was 0.25 µg/mL (≈ 0.364 µM).

Q: And the MIC ([2]; K. pneumoniae VA-384, KPC-2, TEM-1, SHV-11, SHV-12, SHV-14)?
A: The MIC was 8 µg/mL (≈ 11.7 µM).

Q: What about the MIC ([2]; K. pneumoniae VA-398, KPC-3, TEM-1, SHV-11, SHV-12, SHV-27) of the same compound?
A: The MIC was 8 µg/mL (≈ 11.7 µM).

Q: And the IC50 [3]?
A: The IC50 was 2.5 ± 0.5 µM.
